From patent publication US11279735B2, “Cyclic peptide antibiotics” (priority 2017, dated 2022)
In brackets after ≈: the same amount, converted by molar mass. *1 amine or outer side, *2 acyl side, *3 side chain or, on linkers, in order; H or OH if unused. Where a SMILES comes first, the peptide text is derived from it. [ ]: non-standard residue; d: D form. X2 = CCCCCC[C@@H](OC[C@@H](C)N[*:1])[C@@H](C)C(=O)[*:2]; aThr = C[C@H](O)[C@H](N)C(=O)O; NMeL = CN[C@@H](CC(C)C)C(=O)O; Chg = N[C@H](C(=O)O)C1CCCCC1; Dap = NC[C@H](N)C(=O)O

Test system: Escherichia coli (E. coli) strain CFT073 ATCC 700928
Format: cell-based
Conditions: ATCC 700928, 22 h
Outline: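 MICs were read after 22 h at 35 °C, with bacteria added to a final OD600 of 0.0005. Compounds were serially diluted 2-fold over ten concentrations from a top of 64, 4, 0.5 or 0.13 μg/mL (protocols 1–4). Medium was cation-adjusted Mueller Hinton II broth plus 0.002% Tween-80, following CLSI M07-A8.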

| SMILES | MIC [µM] |
| --- | --- |
| CC[C@@H](C)[C@@H]1NC(=O)[C@H](CC(C)C)N(C)C(=O)[C@H](C)[C@@H](CCCCC(C)(C)C)OC(=O)CNC(=O)[C@H]([C@H](C)O)NC(=O)[C@H](CN)NC1=O [Example 49, (6S,9S,12S,15S,18R,19R)-9-(aminomethyl)-19-(5,5-dimethylhexyl)-6-[(1S)-1-hydroxyethyl]-15-isobutyl-16,18-dimethyl-12-[(1R)-1-methylpropyl]-1-oxa-4,7,10,13,16-pentazacyclononadecane-2,5,8,11,14,17-hexone] | 3.1 (≈ 2.12 µg/mL) |
| CCCCCCCCCC[C@H]1OC(=O)CNC(=O)[C@H]([C@H](C)O)NC(=O)[C@H](CN)NC(=O)[C@H](CCCCOC)NC(=O)[C@H](CC(C)C)N(C)C(=O)[C@@H]1C [Example 50, (6S,9S,12S,15S,18R,19R)-9-(aminomethyl)-19-decyl-6-[(1S)-1-hydroxyethyl]-15-isobutyl-12-(4-methoxybutyl)-16,18-dimethyl-1-oxa-4,7,10,13,16-pentazacyclononadecane-2,5,8,11,14,17-hexone] | 25 (≈ 18.5 µg/mL) |
| CCCCCC[C@H]1OC(=O)CNC(=O)[C@H](COCCCN)NC(=O)[C@H](CN)NC(=O)[C@H](C2CCCCC2)NC(=O)[C@H](CC(C)C)N(C)C(=O)[C@@H]1C [Example 51, (6S,9S,12S,15S,18R,19R)-9-(Aminomethyl)-6-((3-aminopropoxy)methyl)-12-cyclohexyl-19-hexyl-15-isobutyl-16,18-dimethyl-1-oxa-4,7,10,13,16-pentaazacyclononadecane-2,5,8,11,14,17-hexaone] | 8.7 (≈ 6.3 µg/mL) |
| CCCCCC[C@H]1OC(=O)CNC(=O)[C@H]([C@H](C)O)NC(=O)[C@H](CN)NC(=O)[C@H](C2CCCCC2)NC(=O)[C@H](CC(C)C)N(C)C(=O)[C@@H]1Cc1ccc(-c2ccccc2)cc1 [Example 54, (6S,9S,12S,15S,18R,19R)-18-([1,1′-Biphenyl]-4-ylmethyl)-9-(aminomethyl)-12-cyclohexyl-19-hexyl-6-((S)-1-hydroxyethyl)-15-isobutyl-16-methyl-1-oxa-4,7,10,13,16-pentaazacyclononadecane-2,5,8,11,14,17-hexaone] | 8.7 (≈ 7.25 µg/mL) |

Further lines, results first:

| MIC [µM] | SMILES |
| --- | --- |
| 18 (≈ 12.5 µg/mL) | CCCCCC[C@H]1OC(=O)CNC(=O)[C@H]([C@H](C)O)NC(=O)[C@H](CN)NC(=O)[C@H](C2CC3(CCC3)C2)NC(=O)[C@H](CC(C)C)N(C)C(=O)[C@@H]1C [Example 55, (6S,9S,12S,15S,18R,19R)-9-(aminomethyl)-19-hexyl-6-((S)-1-hydroxyethyl)-15-isobutyl-16,18-dimethyl-12-(spiro[3.3]heptan-2-yl)-1-oxa-4,7,10,13,16-pentaazacyclononadecane-2,5,8,11,14,17-hexaone] |
| 4.4 (≈ 3.41 µg/mL) | CCCCCCCCCC[C@H]1OC(=O)CNC(=O)[C@H](Cc2c[nH]nn2)NC(=O)[C@H](CN)NC(=O)[C@H](C2CCCCC2)NC(=O)[C@H](CC(C)C)N(C)C(=O)[C@@H]1C [Example 56, (6S,9S,12S,15S,18R,19R)-6-((1H-1,2,3-triazol-4-yl)methyl)-9-(aminomethyl)-12-cyclohexyl-19-decyl-15-isobutyl-16,18-dimethyl-1-oxa-4,7,10,13,16-pentaazacyclononadecane-2,5,8,11,14,17-hexaone] |
| 2.9 (≈ 1.97 µg/mL) | CCCCCC[C@H]1OC[C@@H](C)NC(=O)[C@H]([C@H](C)O)NC(=O)[C@H](CN)NC(=O)[C@H](C2CCCCC2)NC(=O)[C@H](CC(C)C)N(C)C(=O)[C@@H]1C [Example 57, (3R,6S,9S,12S,15S,18R,19R)-9-(Aminomethyl)-12-cyclohexyl-19-hexyl-6-((S)-1-hydroxyethyl)-15-isobutyl-3,16,18-trimethyl-1-oxa-4,7,10,13,16-pentaazacyclononadecane-5,8,11,14,17-pentaone] (cyclo([Chg][Dap][aThr][X2][NMeL])) |
